This note sets out measurements from patent US10174077B2, “Method of inhibiting activity of cell surface fibroblast activation protein alpha” (The Board of Regents of the University of Oklahoma, priority 2006, dated 2019).

For one assay, the target named is DPPIV (Homo sapiens, UniProt P27487). Nature of the assay: DPPIV enzyme assay with fluorescent AMC substrates, inhibition constants. The assay is classed as biochemical. As to the method: (§1) Fluorescence was monitored with time at excitation and emission wavelengths of 360 and 460 nm using a black-sided, 96-well plate in a BIO-TEK FL600 fluorescence plate reader. For standard curves, dilutions of AMC (7-amino-4-methylcoumarin) were prepared in the same assay buffer and corresponding fluorescence was measured. The substrates in five different concentrations were mixed with four different concentrations of inhibitors around the expected Ki values; the enzyme was added and enzymatically released AMC fluorescence was recorded. […] Therefore, enzyme kinetic parameters were computed by fitting data to the following equation, employing the program PRISM, GraphPad: […]
Chain of DPPIV (P27487 whole entry, species assumed): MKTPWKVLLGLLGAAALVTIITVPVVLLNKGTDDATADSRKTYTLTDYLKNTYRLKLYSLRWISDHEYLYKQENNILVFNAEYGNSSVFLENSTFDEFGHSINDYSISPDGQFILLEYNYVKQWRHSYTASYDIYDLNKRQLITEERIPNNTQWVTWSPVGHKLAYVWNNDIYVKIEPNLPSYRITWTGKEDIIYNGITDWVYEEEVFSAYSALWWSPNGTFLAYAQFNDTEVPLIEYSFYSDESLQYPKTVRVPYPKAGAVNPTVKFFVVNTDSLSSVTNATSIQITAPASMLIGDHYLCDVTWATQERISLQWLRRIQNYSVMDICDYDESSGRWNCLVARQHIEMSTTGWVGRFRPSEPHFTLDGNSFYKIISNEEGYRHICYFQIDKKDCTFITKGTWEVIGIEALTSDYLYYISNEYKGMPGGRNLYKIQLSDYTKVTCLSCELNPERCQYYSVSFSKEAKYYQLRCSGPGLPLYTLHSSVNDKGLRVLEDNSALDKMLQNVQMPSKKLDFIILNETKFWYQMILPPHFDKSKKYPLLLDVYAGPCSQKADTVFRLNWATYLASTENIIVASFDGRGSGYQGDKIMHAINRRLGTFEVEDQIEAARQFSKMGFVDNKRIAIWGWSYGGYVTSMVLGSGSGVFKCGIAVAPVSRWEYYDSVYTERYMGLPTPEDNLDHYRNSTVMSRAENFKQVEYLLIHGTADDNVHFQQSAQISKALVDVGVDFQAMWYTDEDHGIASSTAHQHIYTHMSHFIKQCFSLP

Another assay deals with T1, APCE (Homo sapiens, UniProt Q12884).
T1 construct: APCE lacks the first 23 amino terminal residues of FAP; tissue Sylvan Goldman Blood Institute (source of the plasma); host or cells: human plasma
T1 sequence (Q12884 24-760 limits assumed): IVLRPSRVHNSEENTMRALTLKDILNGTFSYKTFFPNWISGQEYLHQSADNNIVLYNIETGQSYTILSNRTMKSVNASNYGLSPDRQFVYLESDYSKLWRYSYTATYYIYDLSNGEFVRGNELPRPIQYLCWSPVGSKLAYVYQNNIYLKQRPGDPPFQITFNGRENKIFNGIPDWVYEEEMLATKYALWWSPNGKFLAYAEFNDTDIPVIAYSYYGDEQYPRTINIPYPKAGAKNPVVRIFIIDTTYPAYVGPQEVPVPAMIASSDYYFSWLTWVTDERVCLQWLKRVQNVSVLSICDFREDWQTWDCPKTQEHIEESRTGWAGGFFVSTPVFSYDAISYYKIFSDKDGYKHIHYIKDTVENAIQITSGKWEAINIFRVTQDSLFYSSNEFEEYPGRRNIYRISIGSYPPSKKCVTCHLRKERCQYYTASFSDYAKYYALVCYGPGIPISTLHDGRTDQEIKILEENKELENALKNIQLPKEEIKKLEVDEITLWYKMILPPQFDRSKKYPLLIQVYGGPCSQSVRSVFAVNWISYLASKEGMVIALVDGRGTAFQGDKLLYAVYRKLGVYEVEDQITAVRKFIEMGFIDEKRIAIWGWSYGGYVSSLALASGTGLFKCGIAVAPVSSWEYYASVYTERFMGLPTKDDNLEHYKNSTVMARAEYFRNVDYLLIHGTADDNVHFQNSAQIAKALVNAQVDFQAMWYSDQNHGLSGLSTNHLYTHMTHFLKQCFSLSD
In words: APCE enzyme assay with fluorescent AMC substrates, competitive inhibition constants. The class given is biochemical. The note with it: for Selectivity, Ki (DPPIV)/Ki (APCE/FAP): ratio of Ki values. As to the method:
as §1

For assay [1], the target named is T2, cell surface FAP of MDA-MB-435 breast cancer cells (Homo sapiens, UniProt Q12884).
T2 construct: cultured breast cancer cells also have FAP activity on their cell surface; endogenous in cells; host or cells: MDA-MB-435 cells
T2 sequence (Q12884 1-760): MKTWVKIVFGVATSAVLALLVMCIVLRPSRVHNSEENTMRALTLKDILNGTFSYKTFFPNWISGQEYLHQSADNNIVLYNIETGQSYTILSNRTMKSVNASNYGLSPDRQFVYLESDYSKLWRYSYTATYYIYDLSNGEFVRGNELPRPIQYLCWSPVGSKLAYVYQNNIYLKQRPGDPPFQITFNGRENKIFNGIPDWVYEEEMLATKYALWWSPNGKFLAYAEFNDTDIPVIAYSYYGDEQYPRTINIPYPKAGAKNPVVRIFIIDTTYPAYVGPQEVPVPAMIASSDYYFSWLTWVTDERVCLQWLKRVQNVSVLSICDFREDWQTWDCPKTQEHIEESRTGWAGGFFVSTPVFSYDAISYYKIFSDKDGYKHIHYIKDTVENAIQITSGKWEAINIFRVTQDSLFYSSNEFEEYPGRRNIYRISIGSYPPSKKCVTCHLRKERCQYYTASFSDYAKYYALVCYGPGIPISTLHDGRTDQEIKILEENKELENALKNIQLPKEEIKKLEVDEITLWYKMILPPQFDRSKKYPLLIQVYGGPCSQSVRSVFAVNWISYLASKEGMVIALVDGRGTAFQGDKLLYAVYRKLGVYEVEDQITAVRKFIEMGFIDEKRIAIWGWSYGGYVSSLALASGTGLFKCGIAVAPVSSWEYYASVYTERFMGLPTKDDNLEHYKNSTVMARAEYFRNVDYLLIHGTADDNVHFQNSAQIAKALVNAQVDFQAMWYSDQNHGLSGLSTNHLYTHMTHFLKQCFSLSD
Nature of the assay: Cell surface FAP activity of breast cancer cells (cleavage of Ac-Arg-peg-Gly-Pro-AMC). The class given is cell-based. The note with it: live MDA-MB-435 breast cancer cells, inhibitor added with substrate. As to the method:
FIG. 7 is a graph showing cell surface FAP activity of breast cancer cells. MDA-MB-435 cells were seeded into opaque black 96 well cell culture plates and grown to confluency. Cells were washed with Hanks Balanced Salt solution after which either the inhibitor compound Ac-Arg-(8-amino-3,6-dioxaoctanoyl)-D-Ala-L-boroPro, or buffer, was added. The FAP substrate, Ac—R-peg-G-P-AMC, was added and fluorescence measured with time. O.D. 360/460 was converted to APCE Units using a standard curve.
In FIG. 7, the experiment was performed in exactly the same way as for FIG. 6, except live breast cancer cells were used.

In assay [2] the target is T3, cell surface FAP of W138 fibroblast cells (Homo sapiens, UniProt Q12884).
T3 construct: FAP proteolytic activity expressed on the surface of living fibroblast cells; endogenous in cells; host or cells: W138 (WI-38) fibroblasts
T3 sequence (Q12884 1-760): T2 sequence (Q12884 1-760)
In words: Cell surface FAP activity of fibroblasts (cleavage of Ac-Arg-peg-Gly-Pro-AMC). The class given is cell-based. As to the method: FIG. 6 is a graph showing cell surface FAP activity of fibroblasts. W138 Cells were seeded into opaque black 96 well cell culture plates and grown to confluency. Cells were washed with Hanks Balanced Salt Solution after which either the inhibitor compound Ac-Arg-(8-amino-3,6-dioxaoctanoyl)-D-Ala-L-boroPro, or buffer, was added. The FAP substrate, Ac—R-peg-G-P-AMC, was added and fluorescence was measured with time. The inhibitor was added to one set of cells 2 hours after substrate addition (see arrow). O.D. 360/460 was converted to APCE Units using a standard curve.
FIG. 6, for example, illustrates that FAP proteolytic activity expressed on the surface of living fibroblast cells can readily be inhibited by the inhibitor Ac-Arg-peg-D-Ala-boroPro (a.k.a. M83). We measured FAP activity by use of a synthetic substrate, Ac-Arg-peg-Gly-Pro-amidomethyl coumarin, which produces fluorescence upon cleavage of the bond between proline and the amidomethylcoumarin by FAP. In these experiments we made a treatment and then measured any fluorescence generated over several hours. The figure compares three treatments: • (1) “Control”: This curve represents addition of the substrate to live cells bathed in culture media with no other treatment. The synthetic substrate cleavage is observed as reflected by measurement of the fluorescence generated that is expressed as APCE Units.

The mark [3] stands for this setting: best-fit value ± standard error, read-out: Ki, inhibition of APCE activity.

Like-named read-outs stand apart in the source and are kept apart here. Where a SMILES comes first, the peptide text is derived from it. [ ]: non-standard residue; d: D form. Pip = O=C(O)[C@@H]1CCCCN1; AEEA = NCCOCCOCC(=O)O Where only a bound is given, the exact number is not on record here.

For `CC(=O)NC(CCCNC(=N)N)C(=O)NCCOCCOCC(=O)NC(C)C(=O)N1CCCC1B(O)O` (single isomer, unassigned) [Ac-Arg-peg-D-Ala-L-boroPro, acetyl-arg-8-amino-3,6-dioxaoctanoic acid-D-ala-L-boroPro], the Ki at DPPIV was 6.13 µM; at APCE (read-out: APCE/FAP Ki) it was 0.0057 µM. Besides, the “Selectivity, Ki (DPPIV)/Ki (APCE/FAP)” value at APCE is 1075. The “Cell surface FAP activity (substrate hydrolysis, fluorescence as APCE Units)” value in assay [1] is “completely inhibited”; in assay [2] (10 uM inhibitor added to fibroblasts 2 hrs after substrate, listed as Ac-Arg-(8-amino-3,6-dioxaoctanoyl)-D-Ala-L-boroPro), “inhibited cell surface FAP immediately”; in assay [2] (10 uM inhibitor added to fibroblasts 2 hrs after substrate, listed as M83), “immediately and completely arrested”; in assay [2] (10 uM inhibitor added to live fibroblasts simultaneously with substrate, followed 5 hours), “no substrate hydrolysis occurs”.

With `CC(=O)NC(CCCNC(=N)N)C(=O)NCCOCCOCC(=O)NCC(=O)N1CCCC1B(O)O` (racemic) [Ac-Arg-peg-Gly-DL-boroPro], the Ki at DPPIV was found to be 1.15 µM; on APCE (read-out: APCE/FAP Ki), 0.0031 µM. In addition, the “Selectivity, Ki (DPPIV)/Ki (APCE/FAP)” value on APCE is 371.

Take `CC(=O)NC(CCCNC(=N)N)C(=O)NCCOCCOCC(=O)NC(C)C(=O)N1CCCC1B(O)O` (single isomer, unassigned) [Ac-Arg-peg-D-Ala-D-boroPro]: the “Selectivity, Ki (DPPIV)/Ki (APCE/FAP)” value on APCE is 108.

Take `CC(=O)N[C@@H](CCCNC(=N)N)C(=O)NCCOCCOCC(=O)NCC(=O)N1CCC[C@H]1B(O)O` [Ac-Arg-peg-Gly-L-boroPro]: the figures for the Ki on DPPIV and at APCE (read-out: APCE/FAP Ki) were 0.44 µM and 0.0018 µM, respectively. Further, the “Selectivity, Ki (DPPIV)/Ki (APCE/FAP)” value on APCE was determined as 244.

As to FG-peg-G-pyrrolidide [Inhibitor (6)], at APCE (setting [3]), the Ki turned out to be 703 ± 68 µM.

On to “FR-peg-G-[s]fluoropyrrolidide [Inhibitor (9)]”, for which the Ki at APCE (setting [3]) worked out at 55.3 ± 5.3 µM.

For `CC(=O)N[C@@H](CCCNC(=N)N)C(=O)NCCOCCOCC(=O)N[C@@H](CO)C(=O)NCC(=O)N1CCC[C@H]1B(O)O` [Ac-Arg-peg-Ser-Gly-L-boroPro], the “Selectivity, Ki (DPPIV)/Ki (APCE/FAP)” value on APCE turned out to be 319.

Consider Ac-Arg-peg-D-Ala-DL(25:75%)-boroPro, for which the Ki on APCE (read-out: APCE/FAP Ki) is 0.0077 µM.

`CC(=O)NC(CCCNC(=N)N)C(=O)NCCOCCOCC(=O)NC(C)C(=O)N1CCCC1B(O)O` [Ac-Arg-peg-D-Ala-DL(50:50%)-boroPro]: the Ki came to 11.2 µM on DPPIV and 0.0095 µM on APCE (read-out: APCE/FAP Ki). For the same compound, the “Selectivity, Ki (DPPIV)/Ki (APCE/FAP)” value at APCE turned out to be 1176.

Consider `CC(=O)N[C@@H](CCCNC(=N)N)C(=O)NCCOCCOCC(=O)N[C@H](CC(=O)O)C(=O)N1CCC[C@H]1B(O)O` [Ac-Arg-peg-D-Asp-L-boroPro], for which the Ki at DPPIV turned out to be 7.13 µM; at APCE (read-out: APCE/FAP Ki) it was 1.38 µM. Also, the “Selectivity, Ki (DPPIV)/Ki (APCE/FAP)” value on APCE turned out to be 5.2.

In the case of FR-peg-G-pyrrolidide [Inhibitor (5)], the Ki at APCE (setting [3]) amounted to 67.7 ± 5.8 µM.

Take `CC(=O)N[C@@H](CCCNC(=N)N)C(=O)NCC(=O)NCC(=O)N1CCC[C@H]1B(O)O` [Ac-Arg-Gly-Gly-L-boroPro]: the Ki on DPPIV came out at 0.322 µM; on APCE (read-out: APCE/FAP Ki), 0.0172 µM. Also, at APCE, the “Selectivity, Ki (DPPIV)/Ki (APCE/FAP)” value stood at 18.7.

As for “FR-peg-G-[r]fluoropyrrolidide [Inhibitor (8)]”, the Ki at APCE (setting [3]) was determined as 53.8 ± 4.9 µM.

On to `N=C(N)NCCC[C@H](NC(=O)[C@@H](N)Cc1ccccc1)C(=O)NCCOCCOCC(=O)NCC(=O)N1CCCC[C@H]1C(N)=O` [Inhibitor (11), FR-peg-G-pipecolinamide] (H-FR[AEEA]G[Pip]-NH2), for which the Ki on APCE (setting [3]) was more than 1000 µM.

Regarding Ac-Arg-peg-D-Ala-DL(75:25%)-boroPro, the Ki at APCE (read-out: APCE/FAP Ki) is 0.0183 µM.

Turning to `CC(=O)NC(CCCNC(=N)N)C(=O)NCC(=O)NCC(=O)N1CCCC1B(O)O` (racemic) [Ac-Arg-Gly-Gly-DL-boroPro], the Ki at DPPIV was 0.341 µM; on APCE (read-out: APCE/FAP Ki), 0.0229 µM. The “Selectivity, Ki (DPPIV)/Ki (APCE/FAP)” value on APCE stood at 14.9.
